From patent publication US5391765A, “Cholesterol lowering/antioxidant nitroxides” (Bristol-Myers Squibb Company, priority 1993, dated 1995)

Legend:
[1] = system: normocholesterolemic chickens; experiment: Serum lipids (total, LDL and HDL cholesterol) in normocholesterolemic male chickens; assay type: in vivo, chicken; conditions: orally dosed for 4 weeks at 4 mg/kg/day
Method: (§1) Hypocholesterolemic activity was evaluated for the synthetic analogues using γ-tocotrienol as a control in normocholesterolemic chickens. Newborn male chicks (6-10 for each group) were raised on a standard corn-soybean-based control diet for two weeks and then were switched to either control or experimental diets for four weeks. Drug treatment consisted of the addition of test compound to the corn-soybean-based. At the end of the feeding period, all the birds were fasted (about 36 hours) and refed (about 48 hours) to induce cholesterolgenic enzymes prior to sacrifice. The specific activity of HMG-CoA reductase, total serum cholesterol levels, HDL/LDL cholesterol pools, and triglyceride levels (data not shown) were examined (Table II).
(§2) Effects of Compound 3 on Lipid Parameters in Male Chickens
(§3) Orally dosed for 4-weeks at 4 mg/kg/day

LDL [2] = experiment: In vitro copper-mediated LDL oxidation, conjugated diene lag time extension; conditions: 10 μM incubated with rabbit plasma, isolated LDL, added Cu++; lag time ratio treated/control
HepG2 cells = experiment: Cholesterol biosynthesis, 14C-acetate incorporation in HepG2 cells; assay type: cell-based; conditions: Homo sapiens, 4 h incubation, 14C-acetate incorporation over final hour, read-out: Chol. Biosynthesis
Method: (§4) The human hepatoma HepG2 cell culture model was employed to compare the intrinsic activities of the synthetic analogues relative to the tocotrienols. HepG2 cells were incubated with the indicated compounds for 4 hours at 10 μM. Cholesterol synthesis was assayed by ^14 C-acetate incorporation over the final hour of incubation, and HMG-CoA reductase suppression (specific activity) was assayed in the microsomal fraction isolated from parallel cultures at the end of the 4 hour incubation. […] (Table I)

HMG-CoA reductase [3] = experiment: HMG-CoA reductase specific activity in normocholesterolemic male chickens; assay type: in vivo, chicken; conditions: orally dosed for 4 weeks at 4 mg/kg/day
Method: as §1, §2, §3

HMG-CoA reductase [4] = experiment: HMG-CoA reductase suppression (specific activity) in microsomal fraction of treated HepG2 cells; assay type: cell-based, human; conditions: 10 μM, 4 h incubation
Method: as §4

[5] = Oxidation potential by cyclic voltammetry
LDL [6] = conditions: in vitro and in vivo; cited from earlier work
[7] = background statement; cited from earlier work
LDL [8] = conditions: oral vitamin E supplementation; cited from earlier work

Row | Molecule | HDL-C [1] | LDL-C [1] | activity at 10 µM (HepG2 cells) [%] | HMGR Suppression (HMG-CoA reductase [4]) | Oxd. Potential [5] [Volts] | other results
1 | CC(C)=CCC/C(C)=C/CC/C(C)=C/CCSCC1=CC(C)(C)N([O])C1(C)C [Compound 3, 2,5-Dihydro-2,2,5,5-Tetramethyl-3-[[(4,8,12-Trimethyl-3(E),7(E),11-Tridecatrienyl)thio]methyl]-1H-Pyrrole N-Oxide Radical] | 85.8 % of Control | 52.8 % of Control | 5 | 45% of Control | 0.65 | Tot.-C ([1]; total serum cholesterol): 72.0 % of Control; LDL Oxd. Inhib. mean lag ratio (LDL [2]): 0.97; HMGR (HMG-CoA reductase [3]): 56.0 % of Control
2 | CC(C)=CCC/C(C)=C/CC/C(C)=C/CCCOc1ccc2c(c1)C(C)=CC(C)(C)N2[O] [Compound 5, 1,2 -Dihydro-2,2,4-Trimethyl-6-[(5,9,13 -Trimethyl-4(E),8(E),12-tetradecatrienyl)oxy]Quinoline N-Oxide Radical] |  |  | 72 |  |  | 
3 | CC(C)(Sc1cc(C(C)(C)C)c(O)c(C(C)(C)C)c1)Sc1cc(C(C)(C)C)c(O)c(C(C)(C)C)c1 [PROBUCOL, 4,4'-[(1-methylethylidene)bis(thio)]bis[2,6-bis(1,1-dimethylethyl)]] |  |  |  |  | 1.12 | oxidative modification of LDL (LDL [6]): inhibits the oxidative modification of LDL both in vitro and in vivo; bioavailability [7]: suffers from bioavailability problems
4 | Cc1c(C)c2c(c(C)c1O)CCC(C)(CCCC(C)CCCC(C)CCCC(C)C)O2 (stereo not drawn) [α-Tocopherol] |  |  |  |  | 0.81 | 
5 | CC(C)=CCC/C(C)=C/CC/C(C)=C/CCC1(C)CCc2cc(O)c(C)c(C)c2O1 (centres unmarked) [γ-Tocotrienol] | 87.0 % of Control | 54.8 % of Control | 75 | 65% of Control | 0.94 | 
6 | vitamin E |  |  |  |  |  | antioxidant effectiveness, variation between subjects (LDL [8]): varied considerably from subject to subject; oxidative resistance of LDL (LDL [8]): significantly enhanced
